Test results from US20060166867A1, “Novel conjugates of polysaccharides and uses thereof” (priority 2003, published 2006).
Values joined by “and” are separate entries in the source; they are usually repeats but may differ in a detail not shown here. Equal entries are not always repeated.

Columns and labels:
[1] = tested on: Escherichia coli ATCC 25922; conditions: Gram negative reference strain
[2] = tested on: VRE faecium; conditions: clinical isolate, Table 7
[3] = target: T1, CXCR4 (Homo sapiens, UniProt P61073); assay: Competition with 12G5 mAb binding to CXCR4 on MT2 cells (flow cytometry); conditions: 80 μM; read-out: % Inhibition of 12G5 mAb binding to CXCR4
T1 construct: incubated at 4° C. with anti-CXCR4 mAb, 12G5, conjugated to phycoerithrine (PE); endogenous in cells; host or cells: MT2 cells
Description: Interaction of pAACs and arginine peptides with CXCR4 coreceptor: Interactions of pAACs and arginine-peptides with CXCR4 were determined by flow cytometry (FACS-Scan, Becton Dickinson) as previously described (Litovich (2001) supra). In brief, 0.5×10^6 MT2 cells were washed with ice-cold PBS containing 0.1% sodium azide (wash buffer) and were incubated at 4° C. with anti-CXCR4 mAb, 12G5, conjugated to phycoerithrine (PE), in the absence or presence of different concentrations of pAACs and arginine peptides. After 30 minutes of incubation, the cells were washed with ice-cold wash buffer and fixed in PBS containing 1% paraformaldehyde. Non-specific fluorescence was assessed using an isotype control. For each sample 10,000 events were acquired. Data were analyzed and processed using CellQuest™ software (Becton Dickinson).

[4] = tested on: Acinetobacter baumannii ATCC 19606; conditions: Gram negative reference strain
[5] = tested on: P. aeruginosa-gentamicin^r, meropenem^r; conditions: Gram negative clinical isolate
[6] = tested on: S. aureus MRSA; conditions: Gram positive clinical isolate
[7] = tested on: K. pneumoniae-ESBL negative; conditions: Gram negative clinical isolate
[8] = tested on: Moraxella catarrhalis ATCC 25238 (Branhamella); conditions: Gram negative reference strain
[9] = in vitro; assay type: cell-based; conditions: human, MT2 cells; Table 3; trypan blue exclusion; read-out: Cytotoxicity
Description: Cytotoxicity of the various pAACs was determined using the trypan blue exclusion assay. In brief, a sample of the cell suspension was diluted 1:1 (v/v) with 0.4% trypan blue and the cells were counted using a hemocytometer. Results are expressed as the percentage of dead cells.
(§1) HIV-1 isolates were propagated by subculture in MT2 cells (Litovchick et al. (2001) supra). Aliquots of cell-free culture supernatants were used as viral inoculum. PAACs were dissolved in the RPMI 1640 medium. Cytotoxicity determinations were carried out in MT2 cells by trypan blue exclusion assay. Viral inhibition was determined by incubating MT2 or cMAGI HIV-1 reporter cells with 0.2-0.5 multiplicity of infection of HIV-1 wild type or resistant virus for 4 days at 37° C. in the presence or absence of various concentrations of pAACs. HIV-1 infection of cMAGI cells was determined by counting the number of HIV-1-infected cells (stained blue). The cytopathic effects of the viral infection of MT2 cells were also analyzed by microscopic assessment of syncytium formation.

[10] = tested on: Proteus mirabilis ATCC 7002; conditions: Gram negative reference strain
[11] = tested on: K. pneumoniae-ESBL positive; conditions: Gram negative clinical isolate
[12] = tested on: E. Coli-ESBL positive; conditions: Gram negative clinical isolate
[13] = tested on: S. epidermidis MRSE; conditions: Gram positive clinical isolate
[14] = tested on: S. epidermidis MSSE; conditions: Gram positive clinical isolate
[15] = tested on: A. baumannii-amikacin^r, meropenem^r; conditions: Gram negative clinical isolate
[16] = tested on: A. baumannii-amikacin^s, meropenem^s; conditions: Gram negative clinical isolate
[17] = tested on: Klebsiella pneumoniae ATCC 13883; conditions: Gram negative reference strain
[18] = tested on: Pseudomonas aeruginosa ATCC 27853; conditions: Gram negative reference strain
[19] = tested on: Enterobacter aerogenes; conditions: Gram negative clinical isolate
[20] = tested on: S. aureus MSSA; conditions: Gram positive clinical isolate
[21] = tested on: Enterococcus faecalis (clinical isolate); conditions: Gram positive clinical isolate
[22] = tested on: E. coli U3075921; assay: MIC, broth microdilution; assay type: cell-based, Escherichia coli; conditions: clinical isolate, Table 7
Description: (§2) Minimal Inhibition Concentration (MIC) measurements: The Minimal Inhibitory Concentration (MIC) was generally determined by the Broth Microdilution method (based on the protocol described in Clinical and Laboratory Standard Institute (CLSI) NCCLS (2003) M7-A6), as follows:
(§3) A stock solution of each of the tested compounds was prepared by diluting the compound to a 2,560 μg/ml concentration with an appropriate solvent. The stock solution was then serially 2-fold diluted in 96-well microdilution trays using Cation-Adjusted Mueller-Hinton Broth (CAMHB) until reaching the desired range of concentrations, whereas each well contained double the final working concentration. Each row further had one growth control well (medium+inoculum only), and one sterility control well (medium+tested compound). Plates were stored at −70° C. until used.
(§4) The tested microorganisms were used as fresh overnight cultures on blood agar (for gram-positive organisms) or MacConkey agar (for gram-negatives). A standardized inoculum suspension was prepared by the direct colony suspension method, using sterile saline (equivalent to a 0.5 McFarland standard).
(§5) Thus, 50 μl of the inoculum suspension were added to each tested well (except for the sterility control well), and […] was performed during 18-24 hours (depending on the tested microorganism or compound) at 35° C.

[23] = tested on: Serratia marcescens; conditions: Gram negative clinical isolate
[24] = tested on: Staphylococcus aureus ATCC 24213; conditions: Gram positive reference strain
[25] = tested on: HIV-1 IIIB; assay: microbe, parasite or virus in culture; assay type: cell-based; conditions: Table 3; against HIV-1 IIIB virus; read-out: EC50
Description: Inhibition of HIV-1 cell replication was tested using the cMAGI assay, which is based on the ability of HIV-1 TAT to transactivate the expression of an integrated β-galactosidase reporter gene driven by the HIV-LTR (B. Chackeria et al., J. Virol., (1997) 71, 3932; Collins et al., Nat. Med. (2000) 6, 475). The β-galactosidase reporter is modified to remain localized in the nucleus where it can be detected with the X-gal (5-bromo-4-chloro-3indoyl-β-D-galactopyranoside) substrate as an intense nuclear stain within a few days of infection.
as §1

[26] = tested on: cMAGI cells; conditions: FITC derivatives, 5 and 15 μM, 30 minutes at 37° C.
Description: Cellular uptake using pAACs and polyarginine peptide-fluorescent derivatives: cMAGI cells were incubated in a 8-well plate (2000 cells/well) with a pAACs-FITC or a peptide-FITC derivative at a final concentration of 5 and 15 μM, for 30 minutes at 37° C. After incubation, cells were washed 3 times with phosphate buffered saline 3 times and were subjected to confocal microscopy measurements (Olympus IX70 FV500 confocal laser scanning microscope).

[27] = tested on: Streptococcus bovis ATCC 9809; assay: MIC, broth microdilution; assay type: cell-based; conditions: Gram positive reference strain
Description: as §2, §3, §4, §5

[28] = tested on: E. Coli-ESBL negative; conditions: Gram negative clinical isolate
[29] = tested on: P. aeruginosa-gentamicin^s, meropenem^s; conditions: Gram negative clinical isolate
[30] = tested on: Enterobacter cloacae; conditions: Gram negative clinical isolate

T1 sequence (P61073 whole entry): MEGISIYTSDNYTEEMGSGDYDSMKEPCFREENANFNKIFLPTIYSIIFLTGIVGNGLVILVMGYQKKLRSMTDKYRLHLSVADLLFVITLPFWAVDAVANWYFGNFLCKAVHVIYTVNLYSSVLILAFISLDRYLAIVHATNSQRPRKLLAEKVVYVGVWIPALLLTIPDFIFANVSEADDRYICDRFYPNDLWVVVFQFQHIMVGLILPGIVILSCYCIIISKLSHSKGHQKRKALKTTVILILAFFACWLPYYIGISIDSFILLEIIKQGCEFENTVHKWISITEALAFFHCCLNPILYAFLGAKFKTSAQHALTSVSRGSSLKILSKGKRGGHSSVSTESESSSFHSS

N=C(N)NCCC[C@H](NC(=O)[C@H](CCCNC(=N)N)NC(=O)[C@H](CCCNC(=N)N)NC(=O)[C@H](CCCNC(=N)N)NC(=O)[C@H](CCCNC(=N)N)NC(=O)[C@H](CCCNC(=N)N)NC(=O)[C@H](CCCNC(=N)N)NC(=O)[C@H](CCCNC(=N)N)NC(=O)[C@@H](N)CCCNC(=N)N)C(=O)O [Compound 5, L-Arg-9-mer-NH2]
Minimum Inhibitory Concentration [1]: > 256.0 mg/liter and 126.50 μM | Minimum Inhibitory Concentration [2]: > 128.0 mg/L | inhibition at 80 µM [3]: 52.8% | Minimum Inhibitory Concentration [4]: > 256.0 mg/liter and 126.50 μM | Minimum Inhibitory Concentration [5]: > 256.0 mg/liter and 126.50 μM | Minimum Inhibitory Concentration [6]: > 128.0 mg/liter and 63.25 μM | Minimum Inhibitory Concentration [7]: > 256.0 mg/liter and 126.50 μM | Minimum Inhibitory Concentration [8]: 32.0 mg/liter and 15.81 μM | CC50 [9]: 120 µM | Minimum Inhibitory Concentration [10]: > 256.0 mg/liter and 126.50 μM | Minimum Inhibitory Concentration [11]: > 256.0 mg/liter and 126.50 μM | Minimum Inhibitory Concentration [12]: 256.0 mg/liter and 126.50 μM | Minimum Inhibitory Concentration [13]: 32.0 mg/liter and 15.81 μM | Minimum Inhibitory Concentration [14]: 12.0 mg/liter and 5.93 μM | Minimum Inhibitory Concentration [15]: > 256.0 mg/liter and 126.50 μM | Minimum Inhibitory Concentration [16]: > 256.0 mg/liter and 126.50 μM | Minimum Inhibitory Concentration [17]: > 256.0 mg/liter and 126.50 μM | Minimum Inhibitory Concentration [18]: > 256.0 mg/liter and 126.50 μM | Minimum Inhibitory Concentration [19]: > 256.0 mg/liter and 126.50 μM | Minimum Inhibitory Concentration [20]: 128.0 mg/liter and 63.25 μM | Minimum Inhibitory Concentration [21]: 128.0 mg/liter and 63.25 μM | Minimum Inhibitory Concentration [22]: > 256.0 mg/L | Minimum Inhibitory Concentration [23]: > 256.0 mg/liter and 126.50 μM | Minimum Inhibitory Concentration [24]: 128.0 mg/liter and 63.25 μM | EC50 [25]: 33 µM | cellular uptake [26]: lower uptake efficiency | Minimum Inhibitory Concentration [27]: 128.0 mg/L | Minimum Inhibitory Concentration [28]: > 256.0 mg/liter and 126.50 μM | Minimum Inhibitory Concentration [29]: > 256.0 mg/liter and 126.50 μM | Minimum Inhibitory Concentration [30]: > 256.0 mg/liter and 126.50 μM
